# According to paper PMC8130611 (ACS infectious diseases, 2021):
# “Also recorded” adds a separate entry of the source.
# How the values were obtained:
# [1] = target: SARS-CoV-2-S-RBD–hACE2 PPI (Severe acute respiratory syndrome coronavirus 2, UniProt P0DTC2); type: binding, human; conditions: for IC50: read-out: IC50, inhibition of SARS-CoV-2-RBD binding to hACE2
# TNF-R1–TNF-α interaction = TNF-R1–TNF-α interaction (Homo sapiens, UniProt P01375+P19438); experiment: cell-free ELISA-type counter-assay, inhibition of TNF-R1–TNF-α interaction; type: binding
# SARS-CoV = conditions: cited from earlier work
# THP-1 human cells = conditions: concentrations of up to 200 μM; ref [61], [62]; cited from earlier work
# [2] = tested on: BacMam-based pseudovirus bearing the SARS-CoV-2 S protein; type: cell-based
# TNF-R1–TNF-α interaction, sequence (P19438 30-211): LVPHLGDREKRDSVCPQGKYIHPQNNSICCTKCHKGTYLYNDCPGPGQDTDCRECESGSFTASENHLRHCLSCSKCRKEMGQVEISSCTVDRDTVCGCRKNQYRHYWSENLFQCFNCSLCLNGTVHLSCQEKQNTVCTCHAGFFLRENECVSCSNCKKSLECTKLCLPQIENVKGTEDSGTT
# TNF-R1–TNF-α interaction, sequence (P01375 85-233): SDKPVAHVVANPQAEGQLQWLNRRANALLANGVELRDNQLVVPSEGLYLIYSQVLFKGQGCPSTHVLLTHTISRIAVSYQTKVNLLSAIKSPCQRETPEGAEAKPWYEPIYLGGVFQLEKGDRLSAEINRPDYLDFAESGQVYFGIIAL
compound,measurement,setting,value
Nc1c(N=Nc2ccc([N+](=O)[O-])cc2)c(S(=O)(=O)[O-])cc2cc(S(=O)(=O)[O-])c(N=Nc3ccccc3)c(O)c12.[Na+].[Na+] [naphthol blue black],inhibitory activity on SARS-CoV-2-RBD–hACE2 binding (in words),[1],no inhibitory activity
O=C([O-])c1c(Cl)c(Cl)c(Cl)c(Cl)c1-c1c2cc(Br)c(=O)c(Br)c-2oc2c(Br)c([O-])c(Br)cc12.[Na+].[Na+] [phloxine B],activity in screening for inhibitors of SARS-CoV-2 RBD binding,[1],strongest activity
erythrosine B,activity in screening for inhibitors of SARS-CoV-2 RBD binding,[1],strongest activity
same,IC50,[1],0.4 µM
Nc1c(/N=N/c2ccc(-c3ccc(/N=N/c4cc(S(=O)(=O)O)c5ccccc5c4N)cc3)cc2)cc(S(=O)(=O)O)c2ccccc12 [Congo red],IC50,TNF-R1–TNF-α interaction,6 µM
O=C([O-])c1c(Cl)c(Cl)c(Cl)c(Cl)c1-c1c2cc(I)c(=O)c(I)c-2oc2c(I)c([O-])c(I)cc12.[Na+].[Na+] [rose Bengal],activity in screening for inhibitors of SARS-CoV-2 RBD binding,[1],strongest activity
CCN(CC)CCCC(C)Nc1ccnc2cc(Cl)ccc12 (stereo not shown) [chloroquine],cytotoxicity (MTS),HEK293T cells,noticeable cytotoxicity
OC(COc1cccc(OCC(O)CN2CCCCC2)c1)CN1CCCCC1 (stereo not shown) [VE607],activities of previously identified candidates,SARS-CoV,1.6 µM
CN1CCN(c2ccc(CNC(=O)c3ccno3)cc2)CC1 [SSAA09E2],activities of previously identified candidates,SARS-CoV,3.1 µM
O=C(Nc1ccc(-c2ccc(C(=O)Nc3cccc4cccc(S(=O)(=O)O)c34)cc2)cc1)c1ccc([N+](=O)[O-])cc1 [DRI-C21041],effect on viability of THP-1 human cells,THP-1 human cells,did not have significant effects
CCN(CCO)CCCC(C)Nc1ccnc2cc(Cl)ccc12 (stereo not shown) [hydroxychloroquine],"inhibition of pseudovirus entry (BacMam), in words",[2],did not show any significant inhibition; also recorded: no effect
CCOc1ccc(N=Nc2ccc(-c3ccc(N=Nc4c(O)ccc5cc(S(=O)(=O)O)cc(S(=O)(=O)O)c45)c(C)c3)cc2C)cc1 [calcomine scarlet 3B],IC50,[1],4.25 µM
Cc1ccc(C(=O)Nc2ccc(S(=O)(=O)O)c3cc(S(=O)(=O)O)cc(S(=O)(=O)O)c23)cc1NC(=O)c1cccc(NC(=O)Nc2cccc(C(=O)Nc3cc(C(=O)Nc4ccc(S(=O)(=O)O)c5cc(S(=O)(=O)O)cc(S(=O)(=O)O)c45)ccc3C)c2)c1 [suramin],inhibitory activity on SARS-CoV-2-RBD–hACE2 binding (in words),[1],neither chloroquine nor suramin showed inhibitory activity; also recorded: no activity
Nc1ccc(N=Nc2ccc(-c3ccc(N=Nc4c(S(=O)(=O)O)cc5cc(S(=O)(=O)O)c(N=Nc6ccccc6)c(O)c5c4N)cc3)cc2)c(N)c1 [chlorazol black],IC50,[1],2.57 µM
O=S(=O)([O-])c1ccc(N=Nc2c(O)ccc3cc(S(=O)(=O)[O-])ccc23)cc1.[Na+].[Na+] [sunset yellow FCF],inhibitory activity on SARS-CoV-2-RBD–hACE2 binding (in words),[1],no inhibitory activity
CN(C)c1ccc2nc3ccc(=[N+](C)C)cc-3sc2c1 [methylene blue],activity in screening for inhibitors of SARS-CoV-2 RBD binding,[1],promising inhibitory activity
